Assay results reported in patent US7776862B2, “Pyridyl and phenyl substituted piperazine-piperidines with CXCR3 antagonist activity” (Schering Corporation, priority 2005, dated 2010).
pIC50: −log10 of the molar value.

The molecules below were run against T1, human CXCR3 (N-delta 4) (Homo sapiens, UniProt P49682) (assay: Human CXCR3 (N-delta 4) scintillation proximity assay (SPA), [125I] IP-10 binding). Conditions: IC50 rating; Ba/F3-hCXCR3 (N-delta 4) membranes, 25 pM [125I] IP-10.
T1 construct: CD8 leader; Flag tag; expressed in transfected cells; membranes used
T1 sequence (P49682 5-368 limits assumed): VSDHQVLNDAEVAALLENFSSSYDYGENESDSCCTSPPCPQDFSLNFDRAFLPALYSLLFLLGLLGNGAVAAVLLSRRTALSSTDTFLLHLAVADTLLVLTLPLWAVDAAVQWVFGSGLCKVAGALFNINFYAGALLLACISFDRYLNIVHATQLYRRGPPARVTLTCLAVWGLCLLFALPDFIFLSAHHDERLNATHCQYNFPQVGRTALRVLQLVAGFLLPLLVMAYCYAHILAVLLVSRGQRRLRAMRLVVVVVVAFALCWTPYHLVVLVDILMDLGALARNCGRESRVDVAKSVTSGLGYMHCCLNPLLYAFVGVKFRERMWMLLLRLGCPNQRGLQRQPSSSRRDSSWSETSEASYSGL
In short: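 IP-10 and compound titrations added together. The receptor source was SPA beads bearing membranes from Ba/F3 cells transfected with human CXCR3 (N-delta 4) carrying a CD8 leader and Flag tag.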
O=C(NCc1ccc(F)c(F)c1)c1cnc(N2CCN(C3CCN(Cc4ccc(Cl)cc4)CC3)CC2)c(Br)c1 [compound 253] showed a pIC50 greater than 7.60.
Molecule C[C@@H]1CN(c2ncc(C(=O)NCc3ccc(F)c(F)c3)cc2Cl)CCN1C1CCN(Cc2ccc(Cl)cc2)CC1 [compound 254] has a pIC50 greater than 7.60.
Work on CNC(=O)c1cnc(N2CCN(C3CCN(Cc4ccc(Cl)cc4Cl)CC3)[C@@H](C)C2)c(Cl)c1 [compound 255] yielded a pIC50 greater than 7.60.
Work on CCNC(=O)c1cnc(N2C[C@H](CC)N(C3CCN(C(=O)c4ccc(Cl)cc4)CC3)C[C@H]2C)c(Cl)c1 [compound 256] yielded a pIC50 greater than 7.60.
CC[C@H]1CN(c2ncc(C(=O)NCCO)cc2Cl)CCN1C1CCN(C(CO)c2ccc(Cl)cc2)CC1 (stereo partly drawn) [compound 257] was tested, and the pIC50 was greater than 7.60.
Molecule CNC(=O)c1cnc(N2CCN(C3CCN(Cc4ccc(Cl)cc4F)CC3)[C@@H](C)C2)c(Cl)c1 [compound 258] has a pIC50 greater than 7.60.
CC[C@H]1CN(c2ncc(C(=O)NC)cc2Cl)CCN1C1CCN(C(=O)c2ccc(Cl)cc2)CC1 [compound 259] was tested, and the pIC50 was greater than 7.60.
CCNC(=O)c1cnc(N2CCN(C3CCN(C(=O)c4ccc(Cl)cc4F)CC3)[C@@H](CC)C2)c(Cl)c1 [compound 260] showed a pIC50 greater than 7.60.
With C[C@H]1CN(c2ncc(C(=O)Nc3ccc(F)c(F)c3)cc2Cl)CCN1C1CCN(Cc2ccc(Cl)cc2)CC1 [compound 261] the pIC50 was greater than 7.60.
For CCNC(=O)c1cnc(N2CCN(C3CCN(C(=O)c4ccc(-n5cccc5)cc4)CC3)[C@@H](CC)C2)c(Cl)c1 [compound 262], the pIC50 was greater than 7.60.
In the case of CCNC(=O)c1cnc(N2C[C@H](C)N(C3CCN(Cc4ccc(Cl)cc4F)CC3)C[C@H]2C)c(Cl)c1 [compound 263], the pIC50 was greater than 7.60.
Work on C[C@@H]1CN(c2ncc(C(=O)NCc3ccc(Cl)c(Cl)c3)cc2Cl)CCN1C1CCN(Cc2ccc(Cl)cc2)CC1 [compound 264] yielded a pIC50 greater than 7.60.
O=C(NCc1ccc(F)c(F)c1)c1cnc(N2CCN(C3CCN(Cc4ccc(Br)cc4)CC3)CC2)c(Br)c1 [compound 265] showed a pIC50 greater than 7.60.
C[C@H]1CN(c2ncc(C(=O)NCc3ccc(Cl)c(Cl)c3)cc2Cl)CCN1C1CCN(C(=O)c2ccc(C#N)cc2)CC1 [compound 266] showed a pIC50 greater than 7.60.
With O=C(NCc1ccc(F)c(F)c1)c1cnc(N2CCN(C3CCN(Cc4ccc(Br)cc4)CC3)CC2)c(Cl)c1 [compound 267] the pIC50 was 7.00 to 7.60.
In the case of O=C(NCc1ccc(F)c(F)c1)c1cnc(N2CCN(C3CCN(Cc4ccc([N+](=O)[O-])cc4)CC3)CC2)c(Cl)c1 [compound 268], the pIC50 was 7.00 to 7.60.
For CCNC(=O)c1cnc(N2CCN(C3CCN(C(=O)c4ccc(C#N)cc4)CC3)[C@@H](CC)C2)c(Cl)c1 [compound 269], the pIC50 was 7.00 to 7.60.
Molecule C[C@@H]1CN(c2ncc(C(=O)NCc3ccc(F)c(F)c3)cc2Cl)CCN1C1CCN(Cc2ccc(C#N)cc2)CC1 [compound 270] has a pIC50 of 7.00 to 7.60.
CNC(=O)c1cnc(N2CCN(C3CCN([C@@H]4CCc5cc(Cl)ccc54)CC3)[C@@H](C)C2)c(Cl)c1 [compound 271] showed a pIC50 of 7.00 to 7.60.
For O=C(NCc1ccc(F)cc1)c1cnc(N2CCN(C3CCN(Cc4ccc([N+](=O)[O-])cc4)CC3)CC2)c(Cl)c1 [compound 272], the pIC50 was 7.00 to 7.60.
Molecule CC[C@H]1CN(c2ncc(C(=O)NN)cc2Cl)CCN1C1CCN(Cc2ccc(Cl)cc2F)CC1 [compound 273] has a pIC50 of 7.00 to 7.60.
CC[C@H]1CN(c2ncc(C(=O)NCCO)cc2Cl)CCN1C1CCN(C(C(=O)OC)c2ccc(Cl)cc2)CC1 (stereo partly drawn) [compound 274] gave a pIC50 of 7.00 to 7.60.
Molecule CCNC(=O)c1cnc(N2CCN(C3CCN(Cc4ccc(Cl)cc4F)CC3)C(CC(F)(F)F)C2)c(Cl)c1 (stereo not drawn) [compound 275] has a pIC50 of 7.00 to 7.60.
With COc1ccc(CN2CCC(N3CCN(c4ncc(C(=O)NCc5ccc(Cl)c(Cl)c5)cc4Br)CC3)CC2)cc1 [compound 276] the pIC50 was 7.00 to 7.60.
N#Cc1ccc(CN2CCC(N3CCN(c4ncc(C(=O)NCc5ccc(F)c(F)c5)cc4Br)CC3)CC2)cc1 [compound 277] gave a pIC50 of 7.00 to 7.60.
Work on CNC(=O)c1cnc(N2CCN(C3CCN([C@H]4CCc5cc(Cl)ccc54)CC3)[C@@H](C)C2)c(Cl)c1 [compound 278] yielded a pIC50 of 7.00 to 7.60.
With O=C(NCc1ccc(Cl)c(Cl)c1)c1cnc(N2CCN(C3CCN(Cc4ccc(Cl)cc4)CC3)CC2)c(Br)c1 [compound 279] the pIC50 was 7.00 to 7.60.
Work on COc1ccc(CN2CCC(N3CCN(c4ncc(C(=O)NCc5ccc(F)c(F)c5)cc4Br)CC3)CC2)cc1 [compound 280] yielded a pIC50 of 7.00 to 7.60.
In the case of C[C@H]1CN(c2ncc(C(N)=O)cc2Cl)CCN1C1CCN(Cc2ccc(Cl)cc2)CC1 [compound 281], the pIC50 was 7.00 to 7.60.
C[C@@H]1CN(c2ncc(C(=O)NCc3ccc(Cl)c(Cl)c3)cc2Cl)CCN1C1CCN(Cc2ccc(C#N)cc2)CC1 [compound 282] was tested, and the pIC50 was 7.00 to 7.60.
For O=C(NCCOc1ccccc1)c1cnc(N2CCN(C3CCN(Cc4ccc(Cl)cc4)CC3)CC2)c(Br)c1 [compound 283], the pIC50 was 7.00 to 7.60.
O=C(NCc1ccc(Cl)c(Cl)c1)c1cnc(N2CCN(C3CCN(Cc4ccc(Br)cc4)CC3)CC2)c(Br)c1 [compound 284] gave a pIC50 of 7.00 to 7.60.
N#Cc1ccc(C(=O)N2CCC(N3CCN(c4ncc(C(=O)NCc5ccc(Cl)c(Cl)c5)cc4Br)CC3)CC2)cc1 [compound 285] gave a pIC50 of 7.00 to 7.60.
Molecule O=C(NCc1ccc(Cl)c(Cl)c1)c1cnc(N2CCN(C3CCN(Cc4ccc(Cl)cc4)CC3)CC2)c(Cl)c1 [compound 286] has a pIC50 of 7.00 to 7.60.
CC[C@H]1CN(c2ncc(C(=O)NC(C)C)cc2Cl)CCN1C1CCN(C(=O)c2ccc(C#N)cc2)CC1 [compound 287] was tested, and the pIC50 was 7.00 to 7.60.
O=C(NCc1ccc(Cl)cc1)c1cnc(N2CCN(C3CCN(Cc4ccc(Cl)cc4)CC3)CC2)c(Cl)c1 [compound 288] showed a pIC50 of 7.00 to 7.60.
O=C(NCc1ccc(Cl)c(Cl)c1)c1cnc(N2CCN(C3CCN(Cc4ccc(Br)cc4)CC3)CC2)c(Cl)c1 [compound 289] was tested, and the pIC50 was 7.00 to 7.60.
In the case of O=C(NCCOc1ccccc1)c1cnc(N2CCN(C3CCN(Cc4ccc(Br)cc4)CC3)CC2)c(Br)c1 [compound 290], the pIC50 was 7.00 to 7.60.
Work on C[C@H]1CN(c2ncc(C(=O)NCc3ccc(F)c(F)c3)cc2Cl)CCN1C1CCN(C(=O)c2ccc(C#N)cc2)CC1 [compound 291] yielded a pIC50 of 7.00 to 7.60.
For CNC(=O)c1cnc(N2CCN(C3CCN(C(=N)c4ccc(Cl)cc4)CC3)[C@@H](C)C2)c(Cl)c1 [compound 292], the pIC50 was 7.00 to 7.60.
O=C(NCc1ccc(Br)cc1)c1cnc(N2CCN(C3CCN(Cc4ccc(Cl)c(F)c4)CC3)CC2)c(Cl)c1 [compound 293] was tested, and the pIC50 was 7.00 to 7.60.
CCNC(=O)c1cnc(N2CCN(C3CCN([C@@H](C)c4ccc(Cl)cc4)CC3)[C@@H](C)C2)c(Cl)c1 [compound 294] gave a pIC50 of 7.00 to 7.60.
In the case of CC[C@H]1CN(c2ncc(C(=O)NC)cc2Cl)CCN1C1CCN(Cc2ccccc2F)CC1 [compound 295], the pIC50 was 7.00 to 7.60.
Molecule O=C(NCc1cccc(F)c1)c1cnc(N2CCN(C3CCN(Cc4ccc(Cl)c(F)c4)CC3)CC2)c(Cl)c1 [compound 296] has a pIC50 of 7.00 to 7.60.
With O=C(NCc1ccc(F)cc1)c1cnc(N2CCN(C3CCN(Cc4ccc(Cl)cc4)CC3)CC2)c(Cl)c1 [compound 297] the pIC50 was 7.00 to 7.60.
In the case of N#Cc1ccc(C(=O)N2CCC(N3CCN(c4ncc(C(=O)NCc5ccc(F)c(F)c5)cc4Br)CC3)CC2)cc1 [compound 298], the pIC50 was 7.00 to 7.60.
For CNC(=O)c1cnc(N2CCN(C3CCN(Cc4ccc(F)cc4Cl)CC3)[C@@H](C)C2)c(Cl)c1 [compound 299], the pIC50 was 7.00 to 7.60.
C[C@@H]1CN(c2ncc(C(=O)NCC3CCCCC3)cc2Cl)CCN1C1CCN(Cc2ccc(C#N)cc2)CC1 [compound 300] gave a pIC50 of 7.00 to 7.60.
In the case of CNC(=O)c1cnc(N2CCN(C3CCN(Cc4ccc(C(F)(F)F)cc4)CC3)[C@@H](C)C2)c(Cl)c1 [compound 301], the pIC50 was 7.00 to 7.60.
CNC(=O)c1cnc(N2CCN(C3CCN(Cc4ccc(Cl)cc4)CC3C)CC2)c(Cl)c1 (stereo not drawn) [compound 302] was tested, and the pIC50 was 7.00 to 7.60.
CC[C@H]1CN(c2ncc(C(=O)NC)cc2Cl)CCN1C1CCN(C(=O)c2ccc(C#N)cc2)CC1 [compound 303] gave a pIC50 of 7.00 to 7.60.
Molecule COc1ccc(CN2CCC(N3CCN(c4ncc(C(=O)NCCOc5ccccc5)cc4Br)CC3)CC2)cc1 [compound 304] has a pIC50 of 7.00 to 7.60.
O=C(NCc1ccc(C(F)(F)F)cc1)c1cnc(N2CCN(C3CCN(Cc4ccc(Cl)cc4)CC3)CC2)c(Br)c1 [compound 305] gave a pIC50 of 7.00 to 7.60.
With CC[C@H]1CN(c2ncc(C(=O)NCCN)cc2Cl)CCN1C1CCN(Cc2ccc(Cl)cc2F)CC1 [compound 306] the pIC50 was 7.00 to 7.60.
Work on C[C@H]1CN(c2ncc(C(=O)NCc3ccc(F)c(F)c3)cc2Cl)CCN1C1CCN(C(=O)c2ccc(Cl)cc2)CC1 [compound 307] yielded a pIC50 of 7.00 to 7.60.
Work on O=C(NCc1ccc(Br)cc1)c1cnc(N2CCN(C3CCN(Cc4ccc(Br)cc4)CC3)CC2)c(Cl)c1 [compound 308] yielded a pIC50 of 7.00 to 7.60.
CCNC(=O)c1cnc(N2CCN(C3CCN(C(=O)c4ccc(Cl)cc4)CC3)C(CC(F)(F)F)C2)c(Cl)c1 (stereo not drawn) [compound 309] showed a pIC50 of 7.00 to 7.60.
Molecule Cc1cc(NC(=O)c2cnc(N3CCN(C4CCN(Cc5ccc(Cl)cc5)CC4)[C@@H](C)C3)c(Cl)c2)no1 [compound 310] has a pIC50 of 7.00 to 7.60.
Work on C[C@H]1CN(c2ncc(C(=O)NCc3ccc(F)c(F)c3)cc2Cl)CCN1C1CCN(CCOc2ccc(Cl)cc2)CC1 [compound 311] yielded a pIC50 of 7.00 to 7.60.
C[C@H]1CN(c2ncc(C(=O)Nc3cc[nH]n3)cc2Cl)CCN1C1CCN(Cc2ccc(Cl)cc2)CC1 [compound 312] showed a pIC50 of 7.00 to 7.60.
In the case of N#Cc1ccc(CN2CCC(N3CCN(c4ncc(C(=O)NCCOc5ccccc5)cc4Br)CC3)CC2)cc1 [compound 314], the pIC50 was 7.00 to 7.60.
Work on CC[C@H]1CN(c2cc(N)c(C(N)=O)cc2Cl)CCN1C1CCN(Cc2ccc(Cl)cc2F)CC1 [compound 315] yielded a pIC50 of 7.00 to 7.60.
With CC[C@H]1CN(c2ncc(C(=O)NC)c(N)c2Cl)CCN1C1CCN(Cc2ccc(Cl)cc2F)CC1 [compound 316] the pIC50 was 7.00 to 7.60.
